The values that follow come from patent US5990170A, “Therapeutic use of mono and bicarboxylic acid amides active at the peripheral cannabinoid receptor” (Lifegroup S.p.A., priority 1994, dated 1999).

Series [1] can be described thus: physchem. Conditions: chloroform, organic solvent or mixture.
The test system of series [2] is RBL-2H3 cells. The experiment in a line: Inhibition of 3H-serotonin release induced by ADNP/DNP-HSA immunogenic stimulation in RBL-2H3 cells. Format: cell-based, rat. To be noted: for inhibition at 100 µM: 100 μM (Table 8); for EC50: 15 minutes release period (Table 9); for 3H-serotonin net release inhibition (%): + anandamide (12.5 μM) (Table 4); for functional effect following receptor activation (serotonin release): result in words; for inhibition at 10 µM: RBL-2H3, 10 μM, 1% DMSO and 0.1% ethanol (Table 4).

A short description of series [3]: Solubility in water and organic solvents.
The target of series [4] is T1, CB2 receptor (RBL-2H3 cell membranes) (Rattus norvegicus, UniProt Q9QZN9).
T1 construct: Preparation of Plasmatic Membranes of RBL-2H3 Cells; endogenous in cells; host or cells: RBL-2H3 (rat basophilic leukemia) cell membranes
T1 sequence (Q9QZN9 1-360): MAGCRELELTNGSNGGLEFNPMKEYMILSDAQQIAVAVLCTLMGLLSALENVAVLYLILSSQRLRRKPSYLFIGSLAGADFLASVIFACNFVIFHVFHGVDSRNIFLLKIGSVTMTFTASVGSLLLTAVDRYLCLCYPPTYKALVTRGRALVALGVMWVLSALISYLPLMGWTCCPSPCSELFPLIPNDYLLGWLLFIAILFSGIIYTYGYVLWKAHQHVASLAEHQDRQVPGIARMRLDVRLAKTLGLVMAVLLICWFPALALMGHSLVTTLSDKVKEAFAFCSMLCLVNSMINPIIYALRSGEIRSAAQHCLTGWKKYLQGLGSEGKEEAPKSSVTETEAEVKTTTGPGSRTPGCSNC
The experiment in a line: Competitive displacement of 3H-WIN 55,212-2 binding to RBL-2H3 cell membranes. Conditions: for inhibition at 10 µM: read-out: % Displacement. As to the method:
(§1) RBL-2H3 cells (100×10^6), frozen at -80° C., were thawed with 4 ml of Tris-HCl buffer solution 50 mM (pH 7.4), added with 0.25% w/v of Tripsin inhibitor, TYPE II-S: SOY BEAN® (distributed by Sigma). The cells were resuspended in the buffer and homogenized. The homogenate was centrifuged at 1500×g at 4° C. for 10 min. The supernatant obtained was collected and the precipitate was resuspended in 4 ml of the previous buffer. The resuspended precipitate was homogenized and centrifuged again at 1500×g at 4° C. for 5-10 min. The resulting supernatant was combined to the supernatant previously obtained and centrifuged at 5000×g for 10 min. After centrifugation, the supernatant was collected and further centrifuged at 40,000×g at 4° C. for 30 min. The resulting precipitate was resuspended in 0.5 ml of the buffer solution described above, with addition of 1% Bovine Serum Albumin fatty acid free. The obtained suspension was centrifuged at 40,000×g at 4° C. for 30 min. The resulting precipitate was collected and resuspended in buffer solution containing 50 mM Tris HCl, 1 mM Tris-EDTA, 3 mM MgCl2, pH 7.4, in order to obtain a proteic concentration of 1 μg/μl approx. This preparation may be used fresh, or frozen at -80° C. and utilized within few days.
Non-radioactive WIN 55,212-2 (1 μM) was used to inhibit specific binding. […] The competitors were added to the binding mixture prior to the labelled ligand. In both cases, for an evaluation of the reference specific binding, ethanol and DMSO were added at the same final concentration to the total binding and to the aspecific one, also in the absence of competitors.
WIN 55,212-2 was used at a concentration of 3 μM, whereas the other compounds were used at a concentration of 10 μM.
Incubation was carried out in the presence of 1% DMSO. The values of Inhibitory Concentration 50 (IC50) are expressed as means ± SEM, after the number of experiments reported hereinbelow.

The target of series [5] is T1, CB2 receptor (RBL-2H3 cell membranes). The description is as above. Conditions: competitor 10 μM; 0.1% DMSO.
Series [6] has the same target. The experiment in a line: Saturation curve of labelled receptor agonist 3H-WIN 55,212-2 on RBL-2H3 cell membranes. The class given is binding. To be noted: 0.5 to 20 nM 3H-WIN 55,212-2; 30 μg membrane proteins; 30° C., 60 min. As to the method:
as §1

Series [7] concerns CB1 central receptor. To be noted: result in words; Devane et al., 1992; cited from earlier work.
For series [8], the system named is activated macrophages. To be noted: result in words; Fischer-Stenger et al., 1993; cited from earlier work.
Setting [9] is: Rattus norvegicus, RBL-2H3, read-out: 3H-serotonin release inhibition %, 1% DMSO.
[10] abbreviates: Rattus norvegicus, RBL-2H3, read-out: EC50, concentration inhibiting by 50% the net release of 3H serotonin, 1% DMSO.
[11] abbreviates: read-out: ED50, inhibition of 3H-serotonin release, + anandamide (12.5 μM) (Table 5), 15 min.
Where [12] appears, read: dmso, organic solvent or mixture.
Setting [13] is: ethanol, organic solvent or mixture.
The mark [14] stands for this setting: Rattus norvegicus, RBL-2H3, 0.25 h, 0.1% DMSO and 0.1% ethanol (Table 3), read-out: ED50 (the source's name).
The mark [15] stands for this setting: Rattus norvegicus, RBL-2H3, read-out: 3H-serotonin net release inhibition (%).
The mark [16] stands for this setting: Rattus norvegicus, RBL-2H3, read-out: 3H-serotonin release inhibition %, 0.2% DMSO.

Structures are written as SMILES. Read-outs that look alike come from different tables or passages of the source.

Turning to `CCCCCCCCCCCCCCCCCC(=O)NCCO` [Example 23, N-(2-hydroxyethyl)-stearoylamide], the solubility in series [1] was greater than 5000 µg/mL. For the same compound, the inhibition at 60 µM in series [2] (Rattus norvegicus, RBL-2H3, read-out: 3H-serotonin release inhibition %, 0.2% DMSO, 60 μM (Table 8)) came to 60%. Further, the inhibition at 100 µM in series [2] (setting [9]) was 91%. Further, the EC50 in series [2] (setting [10]) was determined as 11 µM. Moreover, the IC50 in series [2] (setting [11]) is 10.1 µM; in series [2] (read-out: ED50, inhibition of 3H-serotonin release, - anandamide (Table 5), 15 min), 2.4 µM.

For the compound `CCCCCCCCCCCCCCCC(=O)N[C@@H](CO)c1ccccc1` [Example 1, N-palmitoyl-[(R)-2-amino-2-phenylethanol]], the solubility in series [3] (setting [12]) and in series [3] (setting [13]) was greater than 10000 µg/mL in each case. In addition, the solubility in water result in series [3] (result in words) is on record as “scarcely soluble”. Moreover, the “3H-serotonin net release inhibition (%)” value in series [2] (3 μM) is given as 39%. Also, the activity at 3 µM in series [2] (Rattus norvegicus, RBL-2H3, 0.25 h, 3 μM, 0.1% DMSO and 0.1% ethanol (Table 3), read-out: 3H-serotonin net release (%)) was 0%. The IC50 in series [2] (setting [14]) came out at 0.6 µM; in series [2] (setting [11]), 4 µM; in series [4] it was 0.0004 µM. For the same compound, the inhibition at 3 µM in series [2] (setting [15]) was found to be 100%. Also, in series [2] (co-incubation with anandamide, in words), the “effect of anandamide co-incubation on the ability to inhibit serotonin release” value is recorded as “reduces the ability”. Also, the “functional effect following receptor activation (serotonin release)” value in series [2] is “can inhibit the effects induced by mast cell activation and exert an effect that is higher than or comparable to the one of cannabinoids”. Further, the inhibition at 10 µM in series [4] stood at 77%. The compound also returned a Specific binding in series [5] of 325.

As for `CCCCCCCCCCCCCCCC(=O)NCCOP(=O)(O)O` [Example 27, N-palmitoylethanolamide phosphate], the solubility in series [3] (setting [12]) is greater than 10000 µg/mL; in series [3] (phosphate buffer, pH 7.4, aqueous buffer), greater than 1000 µg/mL. Moreover, the solubility in water entry in series [3] (result in words) is listed as “scarcely soluble”. Besides, the “3H-serotonin net release inhibition (%)” value in series [2] (7.5 μM) is listed as 46%. Moreover, the activity at 7.5 µM in series [2] (Rattus norvegicus, RBL-2H3, 0.25 h, 7.5 μM, 0.1% DMSO and 0.1% ethanol (Table 3), read-out: 3H-serotonin net release (%)) turned out to be 0%. Further, the figures for the IC50 in series [2] (setting [14]), in series [2] (setting [11]) and in series [4] were 3.8 µM, 9.5 µM and 0.0076 µM, respectively. Further, the inhibition at 7.5 µM in series [2] (setting [15]) was determined as 100%. For the same compound, the “functional effect following receptor activation (serotonin release)” value in series [2] is “can inhibit the effects induced by mast cell activation and exert an effect that is higher than or comparable to the one of cannabinoids”. The inhibition at 10 µM in series [4] is 42%. Also, the Specific binding in series [5] amounted to 843.

In turn, `Cc1c(C(=O)c2cccc3ccccc23)c2cccc3c2n1C(CN1CCOCC1)CO3` (stereo not drawn) [3H-WIN 55,212-2] had a Bmax in series [6] of 100 to 250 pM.

In the case of `CCCCCCCCCCCCCCCC(=O)NCCO` [Example 25, N-palmitoylethanolamide], the “solubility in organic solvents” value in series [3] (result in words) is “in hot MetOH, CHCl3, DMSO”. The solubility in water result in series [3] (result in words) is recorded as “insoluble”. For the same compound, the inhibition at 10 µM in series [2] (Rattus norvegicus, + anandamide (12.5 μM), read-out: 3H-serotonin net release inhibition (%)) was found to be 0%; in series [2] (Rattus norvegicus, - anandamide, read-out: 3H-serotonin net release inhibition (%)), 100%; in series [4] it was 23%. Further, in series [2] (Rattus norvegicus, RBL-2H3, 0.25 h, 10 μM (minimum effective concentration), 1% DMSO and 0.1% ethanol (Table 3), read-out: 3H-serotonin net release (%)), the activity at 10 µM is 0%. Moreover, the IC50 was 2.6 µM in series [2] (Rattus norvegicus, RBL-2H3, 0.25 h, 1% DMSO and 0.1% ethanol (Table 3), read-out: ED50 (the source's name)); 0.001 ± 0.00055 µM in series [4]. In addition, the “functional effect following receptor activation (serotonin release)” value was “can inhibit the effects induced by mast cell activation and exert an effect that is higher than or comparable to the one of cannabinoids” in series [2]; “capable of functionally activating the peripheral receptor” in series [2] (listed as palmitoylethanolamide). Further, the Specific binding in series [5] is on record as 1103. Moreover, the “binding to the central receptor” value in series [7] is on record as “not able to bind to the central receptor”.

With `CCCCCc1cc(O)c2c(c1)OC(C)(C)[C@@H]1CCC(C)=C[C@@H]21` [Δ9-THC, Δ9-tetrahydrocannabinol, reference compound], the “effect on cytolytic activity of activated macrophages” value in series [8] was “decreases the cytolytic activity of activated macrophages”. The activity at 25 µM in series [2] (Rattus norvegicus, RBL-2H3, 0.25 h, read-out: 3H-serotonin net release (%)) was determined as 27%. In series [2] (Rattus norvegicus, RBL-2H3, 0.25 h, read-out: ED50), the IC50 came to 5 µM. In series [2] (Rattus norvegicus, RBL-2H3, read-out: 3H-serotonin net release inhibition (%), 25 μM, - anandamide (Table 4)), the inhibition at 25 µM was 73%. Moreover, the “functional effect following receptor activation (serotonin release)” value in series [2] is given as “able to inhibit, in a concentration-dependent way, RBL cells immunogenic activation”.

Take `CCCCCC/C=C\CCCCCCCC(=O)NCCO` [Example 19, N-(2-hydroxyethyl)-palmitoleylamide]: the solubility in series [3] (setting [12]) and in series [3] (setting [13]) was greater than 10000 µg/mL throughout. Besides, the solubility in water entry in series [3] (result in words) was “scarcely soluble”. In addition, the activity at 100 µM in series [2] (Rattus norvegicus, RBL-2H3, 0.25 h, 100 μM, 0.1% DMSO and 0.1% ethanol (Table 3), read-out: 3H-serotonin net release (%)) stood at 100%. Besides, in series [4], the inhibition at 10 µM was 100%.

Regarding `O=C(/C=C/CCCCCCCCC(=O)NCCO)NCCO` [Example 26, N,N'-bis(2-hydroxyethyl)-trans-2-dodecenediamide], the solubility in series [3] (setting [12]), in series [3] (setting [13]) and in series [3] (water) was greater than 10000 µg/mL each time. The “3H-serotonin net release inhibition (%)” value in series [2] (50 μM) is recorded as 48%. Moreover, in series [2] (Rattus norvegicus, RBL-2H3, 0.25 h, 50 μM, 0.1% DMSO and 0.1% ethanol (Table 3), read-out: 3H-serotonin net release (%)), the activity at 50 µM came to 21%. Besides, the IC50 in series [2] (setting [14]) stood at 28 µM; in series [2] (setting [11]), 50 µM. Further, the inhibition at 100 µM in series [2] (setting [16]) and in series [2] (setting [9]) was greater than 95% in each case. Further, the inhibition at 50 µM in series [2] (setting [15]) amounted to 79%. In addition, the inhibition at 10 µM in series [4] was determined as 72%. In series [5], the Specific binding was determined as 402.

`CCCCCCCCCCCC(=O)NCCO` [Example 22, N-(2-hydroxyethyl)-lauroylamide]: the solubility in series [3] (chloroform, organic solvent or mixture) is greater than 10000 µg/mL; in series [3] (setting [12]) it was greater than 10000 µg/mL. Also, the solubility in water entry in series [3] (result in words) was “scarcely soluble”. For the same compound, the inhibition at 100 µM in series [2] (setting [16]) is 100%; in series [2] (setting [9]) it was 91%. The EC50 came out at 35 µM in series [2] (Rattus norvegicus, RBL-2H3, read-out: EC50, concentration inhibiting by 50% the net release of 3H serotonin, 0.2% DMSO) and 11 µM in series [2] (setting [10]). In series [4] (RBL-2H3 cell membranes, 1% DMSO, means ± SEM), this compound had an IC50 of 0.0181 µM. The inhibition at 10 µM in series [4] is 72%.

As a reminder, the solubility is the concentration that dissolves in the medium under given conditions.
